Values quoted from earlier work, collected in patent publication US5096924A, “Anticancer antibiotic MI43-37F11 substance” (501 Azidan Hojin Biseibutsu Kagaku Kenkyu Kai, priority 1989, dated 1992).

Tested on: cyclic adenosine monophosphate (CAMP) phosphodiesterase
Conditions: disclosed in Japanese Kokai No. 71076/78; cited from earlier work

SMILES | inhibitory activity to cyclic adenosine monophosphate (CAMP) phosphodiesterase
COc1cc2cc(CO)oc(=O)c2c(O)c1OC [3-hydroxymethyl-6,7-dimethoxy-8-hydroxyisocumarin] | inhibitory activity
COc1c(O)cc2cc(CO)oc(=O)c2c1O [3-hydroxymethyl-6,8-dihydroxy-7-methoxyisocumarin] | inhibitory activity
